Laboratory results published in ChEMBL document CHEMBL1153291, “Synthesis and structure-activity relationships of novel benzofuran farnesyltransferase inhibitors” (Bioorg Med Chem Lett, 2009).

Columns and labels:
[1] = AUC (0 to 24 hrs) in mouse at 100 mg/kg, po; format: ADME, organism-based; parameters: time < 24 hr, dose 100 mg/kg, route oral; conditions: plasma
[2] = Half life in mouse at 25 mg/kg, po; format: ADME, organism-based; parameters: dose 25 mg/kg, route oral; conditions: in vivo
[3] = Oral bioavailability in mouse at 100 mg/kg; format: ADME, organism-based; conditions: in vivo
[4] = AUC (0 to 24 hrs) in mouse at 25 mg/kg, iv; format: ADME, organism-based; parameters: time < 24 hr, dose 25 mg/kg, route intravenous; conditions: plasma
[5] = Half life in mouse at 25 mg/kg, iv; format: ADME, organism-based; parameters: dose 25 mg/kg, route intravenous; conditions: in vivo
[6] = Cmax in mouse at 100 mg/kg, po; format: ADME, organism-based; parameters: dose 100 mg/kg, route oral; conditions: in vivo
[7] = Half life in mouse at 100 mg/kg, po; format: ADME, organism-based; parameters: dose 100 mg/kg, route oral; conditions: in vivo
[8] = Cmax in mouse at 25 mg/kg, po; format: ADME, organism-based; parameters: dose 25 mg/kg, route oral; conditions: in vivo
[9] = test system: QG-56; experiment: Antiproliferative activity against human QG56 cells; format: functional, cell-based
[10] = test system: QG-56; experiment: Antitumor activity against human QG56 cells xenografted in mouse assessed as reduction of tumor volume at 200 mg/kg, po administered 5 times a week for 2 weeks; format: functional, organism-based; parameters: dose 200 mg/kg
[11] = Apparent oral clearance in mouse at 25 mg/kg, po; format: ADME, organism-based; parameters: dose 25 mg/kg, route oral; conditions: in vivo
[12] = test system: QG-56; experiment: Toxicity in mouse xenografted with human QG56 cells assessed as reduction of body weight loss at 200 mg/kg, po administered 5 times a week for 2 weeks; format: functional, organism-based; parameters: dose 200 mg/kg
[13] = biological target: Protein farnesyltransferase (Homo sapiens, UniProt P49354+P49356); experiment: Inhibition of human FTase; format: protein-complex assay
[14] = Apparent oral clearance in mouse at 100 mg/kg, po; format: ADME, organism-based; parameters: dose 100 mg/kg, route oral; conditions: in vivo
[15] = Oral bioavailability in mouse at 25 mg/kg; format: ADME, organism-based; conditions: in vivo
[16] = AUC (0 to 24 hrs) in mouse at 25 mg/kg, po; format: ADME, organism-based; parameters: time < 24 hr, dose 25 mg/kg, route oral; conditions: plasma

Row | Structure (SMILES) | IC50 [9] [µM] | IC50 [13] [µM] | further results
1 | Cn1cncc1[C@@](N)(c1ccc(C#N)cc1)c1cc2cc(C#N)cc(-c3cccc(F)c3)c2o1 | 0.002 | 0.0011 | AUC(0-t) at 24 h [1]: 31.3 µg·h/mL; half-life [2]: 2.4 h; bioavailability [3]: 51%; AUC(0-t) at 24 h [4]: 15.4 µg·h/mL; half-life [5]: 1.2 h; Cmax [6]: 5.01 µg/mL; half-life [7]: 12.3 h; Cmax [8]: 1.57 µg/mL; Activity [10]: Non-toxic; CL/F [11]: 2.45 L/h/kg; Activity [12]: Not toxic; CL/F [14]: 2.46 L/h/kg; bioavailability [15]: 66%; AUC(0-t) at 24 h [16]: 10.2 µg·h/mL
2 | Cn1cncc1[C@@](N)(c1ccc(C#N)cc1)c1cc2cc([N+](=O)[O-])cc(-c3ccccc3)c2o1 | 0.0059 | 0.0015 | 
3 | Cn1cncc1[C@](N)(c1ccc(C#N)cc1)c1cc2cc([N+](=O)[O-])cc(-c3ccccc3)c2o1 | 0.206 | 0.049 | 
4 | COc1cccc(-c2cc(C#N)cc3cc([C@](N)(c4ccc(C#N)cc4)c4cncn4C)oc23)c1 | 0.0015 | 0.0012 | 
5 | Cn1cncc1[C@@](N)(c1ccc(C#N)cc1)c1cc2cc(C#N)cc(-c3cccc(C#N)c3)c2o1 | 0.002 | 0.0007 | 
6 | COc1cccc(-c2cc([N+](=O)[O-])cc3cc([C@](N)(c4ccc(C#N)cc4)c4cncn4C)oc23)c1 | 0.0011 | 0.0008 | 
7 | Cn1cncc1C(O)(c1ccc(C#N)cc1)c1cc2cc([N+](=O)[O-])cc(-c3cccc(F)c3)c2o1 (racemic) | 0.145 | 0.0063 | 
8 | Cn1cncc1C(O)(c1ccc(C#N)cc1)c1cc2cc([N+](=O)[O-])cc(-c3ccc(C#N)cc3)c2o1 (racemic) | 0.0326 | 0.0034 | 
9 | Cn1cncc1C(O)(c1ccc(Cl)cc1)c1cc2cc([N+](=O)[O-])cc(-c3ccccc3)c2o1 (racemic) | 1.89 | 0.17 | 
10 | Cn1cncc1C(O)(c1ccc(C(=O)OC(C)(C)C)cc1)c1cc2cc([N+](=O)[O-])cc(-c3ccccc3)c2o1 (racemic) | 6.25 | > 1 | 
11 | COC(=O)c1cc(-c2cccc(OC)c2)c2oc(C(O)(c3ccc(C#N)cc3)c3cncn3C)cc2c1 (racemic) | 0.0363 | 0.0032 | 
12 | COc1ccc(C(O)(c2cc3cc([N+](=O)[O-])cc(-c4ccccc4)c3o2)c2cncn2C)cc1 (racemic) | 4.97 | 0.25 | 
13 | Cn1cncc1C(O)(c1ccc(C#N)cc1)c1cc2cc([N+](=O)[O-])cc(-c3ccccc3F)c2o1 (racemic) | 0.0895 | 0.0033 | 
14 | Cn1cncc1C(O)(c1ccc(C#N)cc1)c1cc2cc([N+](=O)[O-])cc(-c3cccc(C#N)c3)c2o1 (racemic) | 0.0229 |  | 
15 | Cc1cccc(-c2cc([N+](=O)[O-])cc3cc(C(O)(c4ccc(C#N)cc4)c4cncn4C)oc23)c1 (racemic) | 0.0232 | 0.011 | 
16 | COc1cccc(-c2cc([N+](=O)[O-])cc3cc(C(O)(c4ccc(C#N)cc4)c4cncn4C)oc23)c1 (racemic) | 0.0388 | 0.0085 | 
17 | COc1cccc(-c2cc(CN(C)C)cc3cc(C(O)(c4ccc(C#N)cc4)c4cncn4C)oc23)c1 (racemic) | 0.142 | 0.011 | 
18 | Cn1cncc1C(O)(c1ccc(C#N)cc1)c1cc2cc(C#N)cc(-c3ccccc3)c2o1 (racemic) | 0.0145 | 0.0024 | 
19 | COc1cccc(-c2cc(C(N)=O)cc3cc(C(O)(c4ccc(C#N)cc4)c4cncn4C)oc23)c1 (racemic) | 0.0082 | 0.0009 | 
20 | COc1cccc(-c2cc(C(=O)NN3CCOCC3)cc3cc(C(O)(c4ccc(C#N)cc4)c4cncn4C)oc23)c1 (racemic) |  | 0.0026 | 
21 | COc1ccc(-c2cc([N+](=O)[O-])cc3cc(C(O)(c4ccc(C#N)cc4)c4cncn4C)oc23)cc1 (racemic) | 0.036 | 0.004 | 
22 | COc1cccc(-c2cc(C=O)cc3cc(C(O)(c4ccc(C#N)cc4)c4cncn4C)oc23)c1 (racemic) | 0.0152 | 0.002 | 
23 | Cn1cncc1C(O)(c1ccc(Cl)cc1)c1cc2cc(C(=O)NN3CCOCC3)cc(-c3ccccc3)c2o1 (racemic) | 0.0736 |  | 
24 | COc1cccc(-c2cc(CO)cc3cc(C(O)(c4ccc(C#N)cc4)c4cncn4C)oc23)c1 (racemic) | 0.0168 | 0.001 | 
25 | Cn1cncc1C(O)(c1ccc(C(=O)O)cc1)c1cc2cc([N+](=O)[O-])cc(-c3ccccc3)c2o1 (racemic) | > 10 | 0.85 | 
26 | Cn1cncc1C(O)(c1ccc(C#N)cc1)c1cc2cc([N+](=O)[O-])cc(-c3ccccc3)c2o1 (racemic) | 1.48 | 0.0064 | 
27 | Cn1cncc1C(O)(c1ccc([N+](=O)[O-])cc1)c1cc2cc([N+](=O)[O-])cc(-c3ccccc3)c2o1 (racemic) | 0.547 | 0.03 | 
28 | Cn1cncc1C(O)(c1ccc(C#N)cc1)c1cc2cc([N+](=O)[O-])cc(-c3ccc(F)cc3)c2o1 (racemic) | 0.158 | 0.0072 | 
29 | Cn1cncc1C(O)(c1ccc(Br)cc1)c1cc2cc([N+](=O)[O-])cc(-c3ccccc3)c2o1 (racemic) | 1.48 | 0.36 | 
30 | Cn1cncc1C(O)(c1ccc(I)cc1)c1cc2cc([N+](=O)[O-])cc(-c3ccccc3)c2o1 (racemic) | > 10 | 0.36 | 
